The record followed here is patent US12016834B2, “Small molecule inhibitors of SLC25A1” (GEORGETOWN UNIVERSITY, priority 2017, dated 2024).

Format in all cases: cell-based, human
Experiment [1] relates to MP1 cells. In words: Apoptosis by annexin V and PI flow cytometry. On the procedure:
Flow cytometry. Tumor cells were trypsinized and washed in 1×PBS. The cells were then stained with the antibodies of choice: CD166-PE (Biolegend), CD133-647 (Biolegend), or CD44 (Biolegend), in 1% BAS-PBS. The cell cycles of monolayers or spheres of the cells were analyzed by fixing the cells in cold 75% ethanol. The annexin V (Biolegend) and propidium iodide (Biolegend) experiments were carried out.

In another experiment the test system is MP1 tumor spheres. As to the kind of experiment: Spheroid-based matrix invasion assay (invadopodia). The following applies: spheres embedded in geltrex. Here is the method: Invadopodia measurements. After embedding the spheres in a 3D matrix, their extent of invasion was monitored over […]. Using an inverted microscope set at a magnification of 20×, images of the spheres were obtained at 0 hours, 24 hours, and 48 hours after plating. Analysis for invasion was done using ‘imageJ’ by NIH. The area of invasion was measured by sketching an outline around the spheres using the freehand draw tool. The ‘measure’ tool in ‘Analyze’ on the top menu calculated the area for the selected spheroid. The areas of just the spheres (inner area) and the area of the spheres along with its invadopodia (outer area) were measured. The percent difference between the outer area and the inner area was graphed to understand the extent of invasion in each cell type at different time points. The obtained areas for all the spheres were graphed. Spheres of similar areas were selected, whereas the outliers were eliminated so as to compare the spheres of similar volumes.

The subject of experiment [2] is phosphofructokinase (PFK). In words: Phosphofructokinase activity in cells. The following applies: 3 hours. On the procedure: Cells, reagents, antibodies, primers. The H1299 cell lines and other cell lines employed in this study were obtained from ATCC or from the tissue culture core facility at LCCC. Cells were grown in Dulbecco's Modified Eagle's Medium (DMEM, 25 mM glucose, with glutamine and pyruvate from Invitrogen; Carlsbad, CA) and supplemented with 10% fetal calf serum (FCS). […] The SLC25A1 specific shRNA vectors were purchased from Sigma. The vector expressing human SLC25A1 untagged or Flag-Myc epitope tagged were from Origene; Rockville, MD (#SC120727 and RC200657, respectively). The anti-SLC25A1 antibody used in immuno-blot was from Santa Cruz Biotech, #sc-86392 employed at 1:1000 dilution. Citrate, lactate, and PFK measurements were performed by using commercially available kits (Biovision (Milpitas, CA)).

Experiment [3] concerns MP1 cells. As to the kind of experiment: Seahorse OCR and ATP in patient-derived cells. The following applies: GMSC versus monolayer; treatment 3 hours. On the procedure:
(§1) Primary lung cancer cultures and GMSC. Surgical samples were minced and digested with dispase (50 U/ml) in DMEM media containing 5% serum for 1 hour. Pleural effusions were centrifuged, washed once in PBS, and then plated. All primary cultures were initially grown on 6-well plates pre-coated with 2% Geltrex (Life Technologies; Carlsbad, CA) and 1% Maxgel (Sigma Aldrich). Maxgel is a humanized matrix, native and non-denatured. The inclusion of Maxgel in the system enhanced the initial attachment of primary tumor cells, partially because Maxgel provides a more natural ECM conformational substrate. The day after plating, the media containing unattached cells was typically transferred to a fresh plate, in most of cases generating new attached cultures. The media (Stem Cell Media) is the DMEM/F12 (Thermo-Fisher #11320-033 basic media) supplemented with the following components: Insulin-Transferrin-Sodium selenite (ITS; 1:1000; Sigma #11884); glutamine (Thermo-Fisher) to 4 mM final concentration; sodium pyruvate (Thermo-Fisher) to 2 mM final concentration; rock inhibitor (Y-27632) 10 micrograms/mL; 2-5% Knock Out Serum Replacement (KNOSR, Thermo-Fisher #10828-028); 0.5% ALBUMAX-(Lipid enriched BSA; Thermo-Fisher #11020-021); N2 Supplement (Thermo-Fisher) 1:250; EGF (5 ng/ml; Peprotech); hFGF (20 ng/ml; Bechman); and IGF-1 (Peprotech; 10-20 ng/ml).
(§2) Seahorse extracellular flux analyzer experiments. Cells derived from spheres or monolayer cultures were dissociated and plated overnight at 12,000 cells/well in DMEM with 10% FBS, 5 mM glucose, 1 mM pyruvate, 2 mM glutamine.
(§3) For the mitochondrial stress test, the media was replaced with DMEM without FBS or bicarbonate, containing 5 mM glucose, 1 mM pyruvate, 2 mM glutamine and placed in a CO2 free incubator at 37° C. for 1 hour, and then transferred to the Xf96 extracellular flux analyzer (Agilent; Santa Clara, CA). The program consisted of 3 measurements of OCR/ECAR before the injection of each drug: oligomycin (0.5 μM final concentration), FCCP (2 μM) and rotenone/antimycin (0.5 μM of each). For the glycolysis stress test, cells were plated overnight as above, and the media was washed twice the following day with DMEM without FBS, bicarbonate, glucose, glutamine or pyruvate, and incubated in this media in a CO2 free incubator with/without drug treatments at 37° C. for 4 hours. There were 3 measurements of OCR/ECAR before each injection: glucose (10 mM final concentration), oligomycin (0.5 […] (50 mM). For the analysis of glutamine oxidation, the protocol was the same as the glucose stress test, but with glutamine being the only compound injected (final concentration 4 mM) and OCR/ECAR measured for 60 minutes. When spheres were analyzed, they were dissociated with StemPro® Accutase® (Thermo Scientific; Waltham, MA) and plated under the same conditions as above as for the monolayers the day before the assay (H1299 spheres), or in stem cell media (See Stem Cell Media) with the wells coated in 15 μL of 2% geltrex diluted in DMEM:F12 (Thermo Scientific). The results were normalized to cell number.

In another experiment the test system is MP2 cells. As to the kind of experiment: Seahorse OCR and ATP in patient-derived cells. On the procedure: as §1, §2, §3
The next experiment has as its system H1299 cells. In words: Seahorse oxygen consumption rate (mitochondrial stress test). On the procedure: as §2
as §3, with “For the glycolysis stress test, cells were plated overnight as above, and the media was washed twice the following day with DMEM without FBS, bicarbonate, glucose, glutamine or pyruvate, and incubated in this media in a CO2 free incubator with/without drug treatments at 37° C. for 4 hours.” left out, “The results were normalized to cell number.” left out

With `O=C(O)c1ccccc1NS(=O)(=O)c1ccc(Cl)c([N+](=O)[O-])c1` [CTPI-2], the apoptosis result in the experiment on MP1 cells [1] (co-treated with cisplatin and CTPI-2) is “strong pro-apoptotic effect”; with MP1 cells [1] (drug alone) it was “did not induce apoptosis”. For the same compound, the matrix invasion result in the experiment on MP1 tumor spheres is listed as “completely reverted this phenotype”. For the same compound, the PFK activity entry is “enhanced” in experiment [2] (monolayer differentiated cultures) and “unchanged” in experiment [2] (spheres). Further, the “increase of oxygen consumption rates, basal, SRC and mitochondrial ATP output in GMSC cells” value is reported as “reverted by CTPI-2 more prominently in CSCs than in monolayer cultures” with MP1 cells [3] and “reverted by CTPI-2 more prominently in CSCs than in monolayer cultures” with MP2 cells (GMSC versus monolayer, treatment 3 hours). Besides, the “basal respiration, SRC and ATP production in cisplatin treated cells” value in the experiment with MP2 cells (monolayer cells exposed to cisplatin (FIG. 15A)) is “blocked basal respiration, SRC and ATP production”. Besides, in the experiment on H1299 cells (SLC25A1 shRNA cells), the “respiratory activity of cells expressing the SLC25A1 shRNA” value is recorded as “failed to affect the respiratory activity”. The “respiratory capacity (OCR)” value in the experiment with H1299 cells (treated for three hours, spheres and monolayers) was “inhibited respiratory capacity in a dose-dependent fashion”.
